Results published in US20080269266A1, “NOVEL COMPOUNDS 747” (ASTRAZENECA AB, priority 2007, published 2008).

Molecular target: T1, human IR (Homo sapiens, UniProt P06213)
T1 construct: expressed in transfected cells; host or cells: CHOT cells (CHO stably transfected with human IR)
Assay: Inhibition of Insulin Receptor Phosphorylation in CHOT cells
Format: cell-based
Details: for IC50: median, CHOT cells stimulated with 30 nM Insulin
Description: This immunofluorescence end point cell assay measures the ability of a test compound to reduce the measured levels of IR phosphorylation after insulin stimulation in CHOT cells. CHOT cells are Chinese Hamster Ovary cells (CHO) stable transfected with human IR. CHOT cells are routinely cultured in Hams F12 growth medium supplemented with 200 ug/ml Geneticin, 2.5 mM HEPES, 2 mM L-Glutamine (Invitrogen Code no. 25030-024) and 10% (v/v) foetal bovine serum (FBS) in a 5% CO2 air incubator at 37° C.
To undertake the assay, the CHOT cells are seeded at 5×10^3 cells/well in Hams F12 medium plus 2.5 mM HEPES, 1% foetal calf serum and 2 mM L-Glutamine in 96-well black Packard View plates (PerkinElmer 6005182) and incubated at 37° C. (+5% CO2) in a humidified incubator. The following day, the plates are dosed with 10 μl of 10× concentrated compound (diluted from 10 mM stock in DMSO and Hams F12 without serum) and the plates are returned to a humidified 37° C. (+5% CO2) incubator for 30 minutes. […]
Following the compound treatment, the CHOT cells are stimulated with a final concentration of 30 nM Insulin (Sigma #I-9278) for 10 minutes at 37° C. […] Additionally, in-house antibodies raised against phospho IR were also used at a suitable titre determined for each batch. […]
The Green Fluorescent phospho IR-associated signal in each well was measured using an Acumen Explorer HTS Reader (TTP Labtech Ltd., Cambridge). Phospho IR-associated fluorescence emission can be detected at 530 nm following excitation at 488 nm. The instrument is a laser-scanning fluorescence microplate cytometer, which samples the well at regular intervals and uses threshold algorithms to identify all fluorescent intensities above the solution background without the need to generate and analyse an image. These fluorescent objects can be quantified and provide a measure of the phospho IR levels in cells. Fluorescence dose response data obtained with each compound was exported into a suitable software package (such as Origin) to perform curve fitting analysis. […]

T1 sequence (P06213 28-1382): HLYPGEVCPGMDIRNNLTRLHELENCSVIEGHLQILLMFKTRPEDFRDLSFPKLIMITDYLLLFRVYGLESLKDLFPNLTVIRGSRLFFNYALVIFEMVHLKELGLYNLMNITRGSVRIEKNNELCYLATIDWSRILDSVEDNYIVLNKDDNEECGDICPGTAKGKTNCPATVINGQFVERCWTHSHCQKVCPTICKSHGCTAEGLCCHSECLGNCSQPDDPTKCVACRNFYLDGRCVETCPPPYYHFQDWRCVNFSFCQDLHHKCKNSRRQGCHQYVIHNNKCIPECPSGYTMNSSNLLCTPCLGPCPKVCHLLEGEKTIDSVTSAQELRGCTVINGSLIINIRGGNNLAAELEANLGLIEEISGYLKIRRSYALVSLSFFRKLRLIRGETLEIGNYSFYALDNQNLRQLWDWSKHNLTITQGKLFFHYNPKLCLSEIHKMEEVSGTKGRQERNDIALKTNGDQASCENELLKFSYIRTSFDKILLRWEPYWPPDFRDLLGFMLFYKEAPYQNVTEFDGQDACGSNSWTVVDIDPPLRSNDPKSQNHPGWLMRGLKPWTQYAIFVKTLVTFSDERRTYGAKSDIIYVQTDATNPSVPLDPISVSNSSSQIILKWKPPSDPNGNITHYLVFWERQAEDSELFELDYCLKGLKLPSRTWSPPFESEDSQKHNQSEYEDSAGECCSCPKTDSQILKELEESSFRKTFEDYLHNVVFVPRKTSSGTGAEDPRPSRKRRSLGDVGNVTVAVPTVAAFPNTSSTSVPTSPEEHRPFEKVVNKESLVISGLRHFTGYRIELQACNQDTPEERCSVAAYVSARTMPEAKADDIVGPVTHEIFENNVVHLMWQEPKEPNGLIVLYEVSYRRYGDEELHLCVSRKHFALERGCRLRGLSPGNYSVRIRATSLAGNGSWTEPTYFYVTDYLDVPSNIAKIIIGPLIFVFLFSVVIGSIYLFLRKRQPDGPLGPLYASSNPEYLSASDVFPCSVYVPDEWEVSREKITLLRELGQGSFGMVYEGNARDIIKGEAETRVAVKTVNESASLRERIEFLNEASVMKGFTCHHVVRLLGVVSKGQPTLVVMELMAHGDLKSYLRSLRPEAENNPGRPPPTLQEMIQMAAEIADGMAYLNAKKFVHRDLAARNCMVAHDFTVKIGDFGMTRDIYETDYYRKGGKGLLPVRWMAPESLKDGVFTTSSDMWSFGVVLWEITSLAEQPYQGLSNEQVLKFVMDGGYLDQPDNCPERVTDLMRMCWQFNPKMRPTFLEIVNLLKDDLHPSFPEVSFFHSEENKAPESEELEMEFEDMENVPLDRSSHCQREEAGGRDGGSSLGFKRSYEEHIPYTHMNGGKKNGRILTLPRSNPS

IC50 | difference in the Inhibition of Insulin Receptor Phosphorylation assay (Example 1 compared with Comparative Example A) | SMILES
3.25 nM |  | CCc1cc(Nc2cc(OC)nc(N3CCC[C@H]3c3cc(-c4ncccn4)no3)n2)n[nH]1 [Comparative Example A, (S)-6-Methoxy-2-{2-[3-(pyrimid-2-yl)isoxazol-5-yl]pyrrolidin-1-yl}-4-(5-ethyl-1H-pyrazol-3-ylamino)pyrimidine]
35 nM | ten-fold | COc1cc(Nc2cc(C)n[nH]2)nc(N2CCC[C@H]2c2cc(-c3ncccn3)no2)n1 [Example 1, (S)-6-Methoxy-2-{2-[3-(pyrimid-2-yl)isoxazol-5-yl]pyrrolidin-1-yl}-4-(5-methyl-1H-pyrazol-3-ylamino)pyrimidine]
